The conditions of data set [1]: Crystal; DSC.
Data set [2] in a line: Molar enthalpy of transition or fusion. Conditions: Crystal; DSC.

Numbers after ± are expanded uncertainties.

Regarding `CCOC(=O)c1ccc(N)cc1` [ethyl 4-aminobenzoate], the Triple point temperature in data set [1] came to 363.2 ± 1.2 K. In addition, in data set [2], the “Molar enthalpy of transition or fusion” value was 5.24 ± 0.237 kcal/mol.

These data come from the NIST ThermoML archive (doi:10.1021/acs.jced.6b00037).
